# Measured values as given in patent publication US9980943B2, “Methods of treating muscular dystrophy” (BOARD OF REGENTS OF THE NEVADA SYSTEM OF HIGHER EDUCATION, …, priority 2013, dated 2018).
# Legend:
# Type in all cases: cell-based, mouse
# [1] = system: α7 integrin (LacZ reporter in α7βgal+/− myoblasts); test: Myoblast α7+/LacZ integrin FDG assay (Burkin assay in myoblasts, 96-well); conditions: SU9516 analogs, 96-well, N=3-6
# [2] = system: α7 integrin (LacZ reporter in α7+/LacZ myotubes); test: Myotube α7 integrin FDG assay (Burkin assay in myotubes, 96-well); conditions: SU9516 analogs, 96-well, N=3-6
# [3] = system: β-galactosidase in CMV-LacZ C2C12 myotubes; test: CMV-LacZ secondary screen in C2C12 myotubes (β-Gal stabilizing assay); conditions: SU9516 analogs, C2C12 CMV-LacZ, N=2
# In short: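 β-gal stabilization was measured in C2C12 myoblasts or myotubes stably transfected with a CMV-driven LacZ construct, using the FDG β-gal assay. Compounds were tested in dose-response at 0.5, 1, 5, 10, 20 and 40 μM, with two replicates per point.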
# [4] = system: β-galactosidase in CMV-LacZ C2C12 myoblasts; test: CMV-LacZ secondary screen in C2C12 myoblasts (β-Gal stabilizing assay); conditions: SU9516 analogs, C2C12 CMV-LacZ, N=2
# In short: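 β-Gal level was the read-out, measured in a clonal C2C12 line expressing LacZ from a CMV promoter. Dose-response curves used six concentrations, 0.5 μM up to 40 μM, with duplicate points.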
SMILES,"Burkin Assay in Myoblasts, value relative to DMSO ([1]; 0.5 uM)","Burkin Assay in Myoblasts, value relative to DMSO ([1]; 1 uM)","Burkin Assay in Myoblasts, value relative to DMSO ([1]; 5 uM)","Burkin Assay in Myoblasts, value relative to DMSO ([1]; 10 uM)","Burkin Assay in Myoblasts, value relative to DMSO ([1]; 20 uM)","Burkin Assay in Myoblasts, value relative to DMSO ([1]; 40 uM)","Burkin Assay in Myotubes, value relative to DMSO ([2]; 0.5 uM)","Burkin Assay in Myotubes, value relative to DMSO ([2]; 1 uM)","Burkin Assay in Myotubes, value relative to DMSO ([2]; 5 uM)","Burkin Assay in Myotubes, value relative to DMSO ([2]; 10 uM)","Burkin Assay in Myotubes, value relative to DMSO ([2]; 20 uM)","Burkin Assay in Myotubes, value relative to DMSO ([2]; 40 uM)","CMV-LACZ in Myotubes, value relative to DMSO ([3]; 0.5 uM)","CMV-LACZ in Myotubes, value relative to DMSO ([3]; 1 uM)","CMV-LACZ in Myotubes, value relative to DMSO ([3]; 5 uM)","CMV-LACZ in Myotubes, value relative to DMSO ([3]; 10 uM)","CMV-LACZ in Myotubes, value relative to DMSO ([3]; 20 uM)","CMV-LACZ in Myotubes, value relative to DMSO ([3]; 40 uM)","CMV-LACZ in Myoblasts, value relative to DMSO ([4]; 0.5 uM)","CMV-LACZ in Myoblasts, value relative to DMSO ([4]; 5 uM)",other results
O=Nc1c(-c2c(O)[nH]c3ccccc23)[nH]c2ccccc12 [NCGC00015545-07],1.073,1.12,0.8463,0.568,0.3068,0.242,1.126,1.08,0.8721,0.7457,0.6654,0.4975,1.0736,1.1036,0.9434,0.8393,0.7010,0.5470,1.2967,0.7896,"CMV-LACZ in Myoblasts, value relative to DMSO ([4]; 1 uM): 1.1950; CMV-LACZ in Myoblasts, value relative to DMSO ([4]; 10 uM): 0.8603; CMV-LACZ in Myoblasts, value relative to DMSO ([4]; 20 uM): 0.5257; CMV-LACZ in Myoblasts, value relative to DMSO ([4]; 40 uM): 0.3383"
COc1cc(OC)c(/C=C2/C(=O)Nc3ccccc32)c(OC)c1 [NCGC00015546-04],0.8923,0.9228,0.3771,0.214,0.1937,0.1497,0.9443,1.051,0.8529,0.8253,0.7881,0.7965,1.1555,1.1427,1.0553,1.1513,1.0230,1.0700,1.1442,1.4889,"CMV-LACZ in Myoblasts, value relative to DMSO ([4]; 10 uM): 1.2439; CMV-LACZ in Myoblasts, value relative to DMSO ([4]; 20 uM): 0.8083; CMV-LACZ in Myoblasts, value relative to DMSO ([4]; 40 uM): 0.5873"
O=Nc1c(-c2c(O)[nH]c3cc(Br)ccc23)[nH]c2ccccc12 [NCGC00094112-04],1.019,0.9927,0.5722,0.4943,0.4509,0.3428,0.7402,0.8159,0.7596,0.629,0.6813,0.35,1.0409,0.8864,0.8123,0.7933,0.7190,0.5420,1.1721,1.0309,"CMV-LACZ in Myoblasts, value relative to DMSO ([4]; 1 uM): 1.1779; CMV-LACZ in Myoblasts, value relative to DMSO ([4]; 10 uM): 1.0782; CMV-LACZ in Myoblasts, value relative to DMSO ([4]; 20 uM): 0.4403; CMV-LACZ in Myoblasts, value relative to DMSO ([4]; 40 uM): 0.3627"
